{"source": "patent US20150352108A1", "about": "“AMINO-PYRIMIDINE COMPOUNDS AS INHIBITORS OF TBK1 AND/OR IKK EPSILON” (Alzheimer's Institute of America, priority 2009, published 2015)", "key": {"[1]": {"system": "insulin-stimulated glucose uptake, 3T3-L1 adipocytes", "experiment": "Glucose uptake assay using differentiated 3T3-L1 adipocytes", "type": "cell-based, Murine", "conditions": "palmitic acid 48 hours", "protocol": "To determine if IKK/TBK1 inhibitors prevent fatty acid induced insulin resistance in 3T3-L1 adipocytes, insulin-stimulated glucose uptake in the presence of compounds according to Formula I was monitored.\nMurine 3T3-L1 cells were differentiated to adipocytes in 96-well plates by incubating for 2 days in adipogenic cocktail (10 ug/ml insulin, 115 ug/ml isobutylmethylxanthine, 1 uM dexamethasone) followed by incubation in insulin-supplemented medium for 2 days and complete media for an additional 5-10 days. Adipocytes were treated with BSA-complexed palmitic acid and a compound according to Formula I for 48 hours. Following free fatty acid treatment, adipoctyes were insulin-deprived in serum-free media for 2 hours. Subsequently, the media was replaced with KRH buffer containing a compound according to Formula I and 300 nM insulin for 15-20 minutes. [^14C]-labeled 2-deoxyglucose was then added for 15 minutes. Cells were thoroughly washed with ice-cold PBS, and intracellular [^14C]-2-deoxyglucose was measured in cell lysates by scintillation."}, "IFN-β production": {"system": "IFN-β production", "experiment": "Inhibition of IFN-β production (similar assay to HFLS-RA RANTES/IP-10)", "type": "cell-based", "conditions": "Homo sapiens", "protocol": "HFLS cells (HFLS-RA) isolated from patients with rheumatoid arthritis were obtained from Cell Applications, Inc. (San Diego, Calif.). Cells were seeded in synoviocyte growth medium (Cell Applications, Inc., San Diego, Calif.) and allowed to grow overnight. The following day, media was replaced and cells were treated with varying concentrations of selected compounds according to Formula I (e.g., Example Compound 5) (0.1% final DMSO concentration). Two hours later, cells were induced with 50 µg/mL Poly(I:C) (Sigma-Aldrich, St. Louis, Mo.). Supernatants were collected 20 hours post-induction and used to monitor RANTES and IP-10 levels using DuoSet ELISA kits (Human CXCL10/IP-10 DuoSet & Human CCL5/RANTES DuoSet; R&D Systems, Inc., Minneapolis, Minn.).\nUsing a similar assay Compound 5 was also found to inhibit production of IFN-β with an IC50 of about 40 nM"}, "[2]": {"system": "collagen-induced arthritis", "experiment": "Collagen-induced arthritis model in mice", "type": "in vivo", "conditions": "for day symptoms of arthritis appeared: days 18-34", "protocol": "Male DBA/1 mice were injected with 150 μL of […] bovine type II collagen in Freund's complete adjuvant on days 0 and 21. On days 18 through 34, 100 mg/kg or 150 mg/kg Example Compound 5 was administered orally each day. Also on days 18 through 34, all mouse paws were given a clinical score on a scale of 0-5, based upon the severity of erythema and swelling. Body weights were measured every other day beginning on day 18. Mice were euthanized on day 34, livers were weighed and paws frozen in preparation for subsequent histopathology evaluation."}, "[3]": {"system": "IKKε-mediated phosphorylation of IRF7", "experiment": "In-situ IKKε-mediated phosphorylation of IRF7 in HEK293T cells (Western blot)", "type": "cell-based"}, "IFN-α2 mRNA, SLE PBMCs": {"system": "IFN-α2 mRNA, SLE PBMCs", "experiment": "Agonist induced IFN-α2 mRNA in PBMCs from SLE patients (qRT-PCR)", "type": "cell-based, human", "conditions": "LMW poly(I:C), serial dilutions", "from_the_text": "To determine if inhibition of IKKε and/or TBK1 modulates nucleic acid agonist induced gene expression, high molecular weight poly(I:C) (MDA5 agonist) and low weight poly(I:C) (RIG-I agonist) were electroporated into human peripheral blood mononuclear cells (PBMCs) obtained from normal donors, or low molecular weight Poly(I:C) was electroporated into PBMCs from donors that have Systemic Lupus Erythematosus (SLE). Induction of IFN-α2, IFN-β, and BLyS mRNA production was monitored by qRT-PCR.\nHuman PBMCs were collected from healthy donors using routine laboratory procedures. PBMCs from SLE patients were purchased from Astarte Biologics (Redmond, Wash.). The PBMCs were electroporated using Nucleofector® Kit V (Lonza, Walkersville, Md.) with 0.4 ug/mL of high molecular weight poly (I:C) (InvivoGen, San Diego, Calif.) or 0.4 ug/mL low molecular weight poly (I:C) (InvivoGen, San Diego, Calif.) and seeded into wells containing serial dilutions of Example Compound 5 (0.1% final DMSO concentration). […] RNA was quantitated using Quant-iT™ RiboGreen® RNA Assay Kit (Invitrogen, Carlsbad, Calif.). Reverse transcription and real-time PCR were performed using the QuantiTect Probe RT-PCR Kit (Qiagen, Germantown, Md.) and the 7300 Real-Time PCR System (Applied Biosytems, Foster City, Calif.). […]"}, "[4]": {"system": "IKKε-mediated phosphorylation of IRF3", "experiment": "In-situ phosphorylation of IRF3 (pIRF3 Ser396 ELISA) in HEK293T cells cotransfected with IRF3 and IKKε", "type": "cell-based", "conditions": "Homo sapiens, HEK-293T; HEK293T cells, 20 hours, text bins; read-out: IC50 for inhibition of the in-situ IKKε-mediated phosphorylation of IRF3", "method_in_brief": "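For the IRF3 ELISA, HEK293T cells cotransfected with IRF3 and IKKε were replated at 20,000/well and treated 20 h. Phospho-Ser396 IRF3 was measured by ELISA and normalised to DMSO, with viability checked by CellTiter-Glo. For IRF7, cells transfected with IRF7 and TBK1 were treated overnight, and pSer477/Ser479 IRF7 was detected by Western blot.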"}}}
{"smiles": "N#Cc1cc(-c2ccnc(Nc3ccc(N4CCOCC4)cc3)n2)ccc1OC1CCOCC1", "note": "[Example 5, 5-(2-{[4-(Morpholin-4-yl)phenyl]amino}pyrimidin-4-yl)-2-(tetrahydro-2H-pyran-4-yloxy)benzaonitrile]", "values": [{"measurement": "effect on free fatty acid inhibition of insulin-stimulated glucose uptake", "setting": "[1]", "result": "reverse the inhibitory effects of free fatty acid on insulin-stimulated glucose uptake"}, {"measurement": "IC50", "setting": "IFN-β production", "result": "~0.04", "unit": "µM"}, {"measurement": "day symptoms were present in all mice", "setting": "[2]; 100 mg/kg orally", "result": "≤ 30", "unit": "days"}, {"measurement": "inhibition of AUC of clinical score as a function of time", "setting": "[2]; 100 mg/kg orally", "result": 29, "unit": "%"}, {"measurement": "inhibition of body weight loss, day 18-34", "setting": "[2]; 100 mg/kg orally", "result": 23, "unit": "%"}, {"measurement": "reduction of magnitude of clinical score on day 34", "setting": "[2]; 100 mg/kg orally", "result": 20, "unit": "%"}, {"measurement": "day symptoms of arthritis appeared", "setting": "[2]; 100 mg/kg orally each day", "result": 23, "unit": "days"}, {"measurement": "day symptoms were present in all mice", "setting": "[2]; 150 mg/kg orally", "result": "≤ 30", "unit": "days"}, {"measurement": "inhibition of AUC of clinical score as a function of time", "setting": "[2]; 150 mg/kg orally", "result": 45, "unit": "%"}, {"measurement": "inhibition of body weight loss, day 18-34", "setting": "[2]; 150 mg/kg orally", "result": 42, "unit": "%"}, {"measurement": "reduction of magnitude of clinical score on day 34", "setting": "[2]; 150 mg/kg orally", "result": 38, "unit": "%"}, {"measurement": "day symptoms of arthritis appeared", "setting": "[2]; 150 mg/kg orally each day", "result": 24, "unit": "days"}, {"measurement": "effect in reducing collagen-induced arthritis", "setting": "[2]; 100 and 150 mg/kg orally", "result": "significant, dose-dependent effects"}, {"measurement": "liver weights", "setting": "[2]; any treatment (100 and 150 mg/kg), day 34", "result": "No differences"}, {"measurement": "increases in erythema and swelling (cumulative clinical score)", "setting": "[2]; both doses (100 and 150 mg/kg)", "result": "significantly slower"}, {"measurement": "inhibition of IKKε-mediated phosphorylation of IRF7", "setting": "[3]", "result": "inhibit"}, {"measurement": "induction of IFN-α2 mRNA", "setting": "IFN-α2 mRNA, SLE PBMCs", "result": "potently inhibited"}, {"measurement": "IC50", "setting": "[4]", "result": "< 0.1", "unit": "µM"}]}
